Test results reported in article PMC8767159, “Multiparameter Optimization of Trypanocidal Cruzain Inhibitors With In Vivo Activity and Favorable Pharmacokinetics” (Frontiers in Pharmacology, 2022).

Legend:
[1] = Fraction unbound by equilibrium dialysis; assay type: in vitro ADME; details: Table S5; fraction unbound
Method: The fraction unbound (fu) ([Masimirembwa et al., 2003]) of the test compounds was determined after incubation with different media, namely, plasma, microsomes, and buffer with 10% FCS. Equilibrium dialysis was performed in a 96-well plate (HT-Dialysis, Gales Ferry, CT) in which each well was divided by a semipermeable membrane (12–14 kDa cutoff). The test compounds diluted in either plasma, microsome suspension, or buffer were added to one side of the membrane. Potassium phosphate buffer (50 mM, pH 7.4) was added to the other side of the membrane. A standard curve was used to calculate the compound concentration (fu) on each side of the membrane. Stock solutions of each compound were prepared in 100% DMSO to obtain a final concentration of 1 mM. The following compound concentrations were used: 1, 2, 20, 200, 2,000 and 5,000 nM. To 500 μl of medium, 0.5 μl of the compound stock solution was added, and this was applied to one side of the well. Each compound was evaluated in triplicate. Next, the plate was assembled, sealed, and incubated at 37°C under rotation (150 rpm) for 4 h. After the incubation period, the plates were subjected to LC-MS/MS.

[2] = In vitro metabolic stability in mouse liver microsomes; assay type: in vitro ADME; details: for CLint (L/h/kg) Mouse: Table S5; for CLint_u (L/h/kg) Mouse: Table S5, CLint/fu
Method: (§1) Isolated mouse (BD Gentest, Bedford, MA) and human liver microsomes (XenoTech, Kansas City, KS) ([Plant, 2004]) were added at a final concentration of 0.25 mg/ml to a solution containing 40 mM dibasic potassium phosphate and 10 mM monobasic potassium phosphate. Stock solutions of compounds at 5 mM were prepared in 100% DMSO. A 50:50 quenching solution of acetonitrile (ACN) and methanol (MeOH) was prepared. An NADPH solution was prepared at 10 mM. The preparations containing the microsomes were added to each well of the incubation plate (450 µl), which was then heated to 37°C for 10 min. The compounds were added to the respective wells of the test plate (2 µl). Then, 300 µl of the microsome preparation was added to each well of the test plate. The test plate was heated under gentle rotation for 5 min at 37°C. Next, 90 µl of the mixture contained in the test plate was added to the incubation plate, making a final volume of 540 µl. Samples were collected at the following incubation times: 0, 5, 10, 15, 20, and 30 min. To the 0 min sample plate, quenching solution (180 µl), NADPH (6 µl), and the incubation plate mixture (54 µl) were added to each well. The sample plate was then sealed, homogenized, and stored at 4°C. Then, 54 µl of the NADPH solution was added to the incubation plate, which was homogenized. Before the collection of each sample at the established times, 45 µl of the quenching solution was added to each well of the corresponding sample plates. After reaching the incubation times, 60 µl of the mixture contained in the incubation plate was added to the corresponding sample plates. The sample plates were then sealed and stored at 4°C. After the collection of the last sample (30 min), all sample plates were centrifuged at 3,800 rpm for 30 min. The supernatant from each well was collected and transferred to clean plates for mass spectrometry. Five to 10 µl of each sample was injected into an AB Sciex Triple Quad 5500 LC-MS/MS instrument.
(§2) For the biotransformation experiments and analysis of metabolites in microsomes, an Ultra-High-Pressure Liquid Chromatography instrument (UHPLC, Thermo Accela, Waltham, MA) ([Spaggiari et al., 2014]) connected to an automatic sample injector and a 1250 series pump was used. The UHPLC system was connected to a Thermo Fisher (Waltham, MA) LTQ Orbitrap mass spectrometer. For all other analyses, an AB Sciex Triple Quad 5500 coupled to a UHPLC equipped with a UV 1290 diode detector (Agilent Technologies, Santa Clara, CA) and a CTC PAL self-collecting system (LEAP Technologies, Carrboro, NC) was used. Q1 MS positive ion mode (300–500 Da) was used to detect the ions of the parent compounds. The UV detector was operated in spectral mode (250–280 nm). A Hypersil Gold C18 (2.1 mm × 100 mm, 1.9 µm, Thermo Fisher) HPLC column was used. The mobile phases were solvent A (0.1% formic acid in water) and solvent B (0.1% formic acid in ACN). The flow was adjusted to 0.55 ml/min, and the injection volume was adjusted to […]. The gradient started with 1% solvent B for 0.4 min, reached 40% (solvent B) in 2.3 min and 95% (solvent B) in 0.67 min, was maintained for 0.5 min, and returned to the initial condition of 1%. This condition was maintained for 1 min before injection of the next sample. The peak area ratio (peak area of the test compounds/peak area of the control compounds) was converted to the percentage of remaining compound, with the 0 min time point ratio set to 100%. T½ and CLint were calculated from the percentage of remaining compound versus the incubation time. From the resulting function, the slope (k) was determined. The equations T1/2 (min) = ln(2)/k and CLint in vitro (μL/min/mg) = k*1000/0.25 were used to determine T½ and CLint.

[3] = In vitro metabolic stability in human liver microsomes; assay type: in vitro ADME; details: for CLint (L/h/kg) Human: Table S5; for CLint_u (L/h/kg) Human: Table S5, CLint/fu
Method: as §1, §2

cruzain = molecular target: T1, cruzain (Trypanosoma cruzi, UniProt P25779); assay: Cruzain enzyme inhibition assay (cleavage of fluorogenic substrate Z-FR-AMC); assay type: biochemical; details: for inhibition at 100 µM: compound 100 µM, mean of three measures
T1 construct: made in house; host or cells: Escherichia coli (strain M15)
T1 sequence (P25779 123-337 limits assumed): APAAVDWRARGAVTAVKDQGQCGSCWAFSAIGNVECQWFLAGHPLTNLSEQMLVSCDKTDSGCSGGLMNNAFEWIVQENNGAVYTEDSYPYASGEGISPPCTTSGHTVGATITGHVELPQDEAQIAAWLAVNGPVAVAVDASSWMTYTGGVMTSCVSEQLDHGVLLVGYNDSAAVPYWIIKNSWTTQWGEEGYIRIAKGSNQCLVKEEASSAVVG
Method: Pro-cruzain truncated at the C-terminus was expressed and purified using a previously described protocol ([Ferreira et al., 2019]). Escherichia coli (strain M15) cultures were grown overnight at 37°C and 200 rpm in Luria Bertani (LB) medium supplemented with ampicillin (100 μg/ml) and kanamycin (50 μg/ml). Next, the cultures were diluted 10-fold in fresh LB medium supplemented with 0.5 M NaCl, 0.2% glucose, 1 mM betaine, 0.5 M sorbitol, 100 μg/ml ampicillin, and 50 μg/ml kanamycin and incubated at 37°C and 200 rpm. At an optical density (OD600) of 0.9, the cultures were incubated at 47°C for 20 min to promote the expression of chaperones. Then, the expression of cruzain was induced by adding isopropyl β-D-thiogalactopyranoside (IPTG) to a final concentration of 0.2 mM, which was followed by overnight incubation of the cultures at 20°C and 200 rpm. Next, the cultures were centrifuged (5,000 rpm, 30 min, 4°C), and the cells were suspended in 50 ml of lysis buffer (300 mM NaCl, 50 mM Tris-HCl, and 1.6 mg/ml lysozyme, pH 8.0) per liter of culture and lysed by sonication (12 cycles of 30 s). This cell lysate was centrifuged (9,000 rpm, 30 min, 4°C), and the supernatant was collected. Cruzain was precipitated by incubation with 35% ammonium sulfate (2 h), and this suspension was centrifuged at 9,000 rpm for 30 min at 4°C. The precipitated cruzain was resuspended in lysis buffer, and the sample was dialyzed to eliminate ammonium sulfate. The soluble fraction of the dialysate was loaded on a Ni−NTA column (Qiagen, Hilden, Germany), and the contaminants were washed using washing buffer (300 mM NaCl, 50 mM Tris-HCl, and 10 mM imidazole, pH 8.0). Cruzain was eluted by applying an increasing imidazole gradient: 25, 50, 75, 100, and 250 mM. The fractions containing cruzain were pooled together and dialyzed against 1.5 L of 0.1 M acetate buffer, pH 5.5, and then concentrated to 0.5 mg/ml. Pro-cruzain was activated by incubation with activation buffer (100 mM sodium acetate, pH 5.5, 10 mM EDTA, 5 mM DTT, and 1 M NaCl) at 37°C. […] After activation, the enzyme was diluted 20-fold in binding buffer (20 mM sodium phosphate and 150 mM NaCl, pH 7.2) and added to thiopropyl Sepharose 6B resin (GE Healthcare Life Sciences, Pittsburgh, PA). After overnight incubation at 4°C, the resin was loaded on a column, and cruzain was eluted with binding buffer supplemented with 20 mM DTT. Fractions containing cruzain were pooled together and stored in 0.1 M sodium acetate, pH 5.5, at −80°C.
Cruzain activity was followed by monitoring the cleavage of the fluorogenic substrate Z-Phe-Arg-aminomethyl coumarin (Z-FR-AMC), as previously described ([Ferreira et al., 2019]), using 96-well flat-bottom black plates and wavelengths of 355 nm for excitation and 460 nm for emission. All cruzain assays were performed in 0.1 M sodium acetate buffer with 5 mM dithiothreitol (DTT) and 0.01% Triton X-100, pH 5.5. […] The cleavage of the substrate was monitored for 5 min, and the activity was calculated based on the initial reaction rates compared with the rate of a DMSO control at 30°C. The IC50 values were independently calculated by considering the rate measurements for at least six inhibitor concentrations, each evaluated in triplicate. To determine the mechanism of cruzain inhibition, eight concentrations of the substrate Z-FR-AMC and four concentrations of the inhibitor were employed, each in triplicate. Kinetic parameters were determined using the SigmaPlot (Systat Software Inc., Erkrath, Germany) enzyme kinetics module. Compounds were tested in two or three independent experiments. All enzyme assays were performed using varying Triton X-100 concentrations (0, 0.01, and 0.1%) ([Ferreira et al., 2009]). Compound concentrations were 100 μM in the single-dose percentage inhibition assays.

| Structure (SMILES) | fu [1] | CLint (L/h/kg) Mouse [2] [L/h/kg] | CLint_u (L/h/kg) Mouse [2] | CLint (L/h/kg) Human [3] [L/h/kg] | CLint_u (L/h/kg) Human [3] | IC50 (cruzain; 1.5 nM cruzain, 5.0 µM Z-FR-AMC, mean ± SD of 2–3 assays, read-out: IC50 (µM) against cruzain) [µM] | inhibition at 100 µM (cruzain) [%] |
| --- | --- | --- | --- | --- | --- | --- | --- |
| O=Cc1c(OCC(=O)NCCc2nc3ccccc3[nH]2)ccc2ccccc12 [Compound 45] | 0.52 | 669.00 | 1,276.72 L/h/kg | 37.30 | 71.18 L/h/kg |  |  |
| O=C(COc1cccc2ccccc12)NCCc1nc2ccccc2[nH]1 [Compound 44] | 0.34 | 504.00 | 1,495.55 L/h/kg | 23.80 | 70.62 L/h/kg |  |  |
| O=C(COc1ccc2ccccc2c1O)NCCc1nc2ccccc2[nH]1 [Compound 47] | 0.72 | 655.00 | 939.71 L/h/kg |  | 35.00 L/h/kg |  |  |
| O=C(CCOc1ccccc1)NCCc1nc2ccccc2[nH]1 [Compound 49] | 1.00 | 86.20 | 86.20 L/h/kg | 3.28 | 3.28 L/h/kg |  |  |
| O=C(COc1ccccc1F)NCCc1nc2ccccc2[nH]1 [Compound 39] | 0.94 | 125.00 | 132.56 L/h/kg | 7.03 | 7.45 L/h/kg |  |  |
| Nc1ccccc1OCC(=O)NCCc1nc2ccccc2[nH]1 [Compound 42] | 0.84 | 24.80 | 29.45 L/h/kg | 3.91 | 4.64 L/h/kg |  |  |
| COc1ccc(C(=O)Cn2c(CCNC(=O)COc3ccc4ccccc4c3Br)nc3ccccc32)cc1 [Compound 63] | 0.02 | 50.10 | 2,609.38 L/h/kg | 40.40 | 2,104.17 L/h/kg |  |  |
| CC(=O)NCCc1nc2ccccc2n1CCOc1ccccc1Br [Compound 57] | 0.94 | 306.00 | 325.19 L/h/kg | 9.38 | 9.97 L/h/kg |  |  |
| CC(=O)NCCc1nc2ccccc2n1CCOc1ccccc1 [Compound 55] | 0.91 | 35.90 | 39.06 L/h/kg | 1.78 | 1.94 L/h/kg |  |  |
| O=C(CCOc1ccccc1)NCCc1c[nH]c2ccccc12 [Compound 58] | 0.84 | 536.00 | 641.15 L/h/kg | 14.20 | 16.99 L/h/kg |  |  |
| COc1ccc2[nH]c(CCNC(=O)COc3ccc4ccccc4c3Br)nc2c1 [Compound 53] | 0.18 | 500.00 | 2,793.30 L/h/kg | 72.40 | 404.47 L/h/kg |  |  |
| CC(=O)Nc1ccccc1OCC(=O)NCCc1nc2ccccc2[nH]1 [Compound 43] | 1.00 | 10.30 | 10.30 L/h/kg | 3.94 | 3.94 L/h/kg |  |  |
| O=C(COc1ccc2ccccc2c1Br)NCCc1nc2ccccc2n1CCC(=O)c1cccs1 [Compound 61] | 0.04 | 355.00 |  | 157.00 | 3,634.26 L/h/kg |  |  |
| COC(=O)c1cccc2cc(OCC(=O)NCCc3nc4ccccc4[nH]3)ccc12 [Compound 14] |  |  |  |  |  | 8.3 ± 2.1 | 92 |
| COc1cc(OCC(=O)NCCc2nc3ccccc3[nH]2)ccc1[N+](=O)[O-] [Compound 16] |  |  |  |  |  |  | 62 |
